In general, IC50 refers to the concentration at which inhibition is half-maximal.

The test relates to NCI-H460. Put plainly: Cytotoxicity against human H460 cells after 48 hrs by MTT assay. Particulars: NCI-H460, 48 h. It is filed as functional, cell-based.

Compound `CC[C@H](C)[C@H]1C(=O)N2CCC[C@H]2C(=O)O[C@H]([C@@H](C)CC(C)(C)C)C[C@@H](C)C[C@H](O)[C@H](C)C2=N[C@@H](/C=C(\C)C(=O)N[C@@H](Cc3ccc(OC)cc3)C(=O)N(C)[C@@H](C)C(=O)N1C)CS2` [APRATOXIN D] came in with an IC50 of 2.6 nM.

The values above are taken from ChEMBL document CHEMBL1157384, “Apratoxin D, a potent cytotoxic cyclodepsipeptide from papua new guinea collections of the marine cyanobacteria Lyngbya majuscula and Lyngbya sordida” (J Nat Prod, 2008).
